Experimental findings from patent US20240389591A1, “CRYSTALLINE FORMS OF METHYL 2-[2-[2-BROMO-4-FLUORO-5-[3-METHYL-2,6-DIOXO-4-(TRIFLUOROMETHYL)PYRIMIDIN-1-YL]PHENOXY]PHENOXY]-2-METHOXY-ACETATE” (BASF SE, priority 2021, published 2024) are described below.

For one test, the system named is Erigeron canadensis. As to the kind of experiment: Greenhouse herbicidal activity, post-emergence treatment. It is filed as in vivo. To be noted: assessment 20 DAT, aqueous SC 8.33 w/v %, scale 0-100. An excerpt: (§1) The culture containers used were plastic flowerpots containing loamy sand with approximately 3.0% of humus as the substrate. The seeds of the test plants were sown separately for each species.
(§2) For the post-emergence treatment, the test plants were first grown to a height of 3 to 15 cm, depending on the plant habit, and only then treated with the active ingredients which had been suspended or emulsified in water. For this purpose, the test plants were either sown directly and grown in the same containers, or they were first grown separately as seedlings and transplanted into the test containers a few days prior to treatment.
(§3) Depending on the species, the test plants were kept at 10-25° C. or 20-35° C., respectively. The test period extended over 2 to 4 weeks. During this time, the test plants were tended, and their response to the individual treatments was evaluated.
(§4) Evaluation was carried out using a scale from 0 to 100. 100 means no emergence of the test plants, or complete destruction of at least the aerial moieties, and 0 means no damage, or normal course of growth. A good herbicidal activity is given at values of at least 70 and a very good herbicidal activity is given at values of at least 85.
(§5) The abovementioned methods were used to compare, in a greenhouse test, form A according to the invention and, as comparison the compound of formula (I) in amorphous form, in each case formulated as aqueous suspension concentrate (SC; 8.33 w/v %).

The subject of a further test is Lolium multiflorum. The description is as above. It is filed as in vivo. The conditions noted are these: assessment 20 DAT, aqueous SC 8.33 w/v %, scale 0-100.
Excerpt: as §1, §2, §3, §4, §5

`COC(=O)C(OC)Oc1ccccc1Oc1cc(-n2c(=O)cc(C(F)(F)F)n(C)c2=O)c(F)cc1Br` (stereo not drawn) [Form A, methyl 2-[2-[2-bromo-4-fluoro-5-[3-methyl-2,6-dioxo-4-(trifluoromethyl)pyrimidin-1-yl]phenoxy]phenoxy]-2-methoxy-acetate]: the “Damage [%]” value turned out to be 60% in the test on Erigeron canadensis (2 g/ha a.i.); 100% in the test with Erigeron canadensis (4 g/ha a.i.); 50% with Lolium multiflorum (2 g/ha a.i.); 70% in the test with Lolium multiflorum (4 g/ha a.i.); 90% with Lolium multiflorum (8 g/ha a.i.); 90% in the test with Lolium multiflorum (16 g/ha a.i.).

Regarding `COC(=O)C(OC)Oc1ccccc1Oc1cc(-n2c(=O)cc(C(F)(F)F)n(C)c2=O)c(F)cc1Br` (stereo not drawn) [amorphous, methyl 2-[2-[2-bromo-4-fluoro-5-[3-methyl-2,6-dioxo-4-(trifluoromethyl)pyrimidin-1-yl]phenoxy]phenoxy]-2-methoxy-acetate], the “Damage [%]” value is on record as 30% in the test on Erigeron canadensis (2 g/ha a.i.); 70% in the test on Erigeron canadensis (4 g/ha a.i.); 15% in the test on Lolium multiflorum (2 g/ha a.i.); 25% in the test on Lolium multiflorum (4 g/ha a.i.); 75% in the test with Lolium multiflorum (8 g/ha a.i.); 80% with Lolium multiflorum (16 g/ha a.i.).
